For two compounds, EC50 results are on record in US11207301B2, “Sphingosine 1 phosphate receptor agonists for neuroprotection” (RECEPTOS LLC, priority 2017, dated 2021).

Type in all cases: cell-based
In experiment [1] the test system is AKT phosphorylation in primary rat astrocytes. The experiment is described as follows: AKT phosphorylation in primary rat astrocytes (MSD pAKT assay). The note with it: Astrocyte, 10 min, 10-minute exposure, mean of n=4. The protocol: For the experiments using rat primary astrocytes, eight-point concentration-response curves were generated for AKT and ERK phosphorylation in primary rat astrocytes cultures in response to a 10-minute treatment with ozanimod (100 nM-46 pM), Compound 3 (10 nM-5 pM), Compound 1 (10 nM-5 pM), or FTY720-P (10 nM-5 pM). Phosphorylation of AKT and ERK was quantified using Meso Scale Discovery assay kits (MSD Mutli-Spot Phopho-AKT (Ser473) Assay Kit and MSD Multi-Spot MAP Kinase Phosphoprotein Assay Whole Cell Lysate Kit) and imaging platform. AKT and ERK phosphorylation within treated astrocytes were assessed as the mean change in signal intensity compared to DMSO vehicle and the half maximal effective concentration (EC50) was determined using non-linear regression.
Embryonic day18 (E18) rat cortices were purchased from BrainBits LLC. (Springfield, Ill.) and were cultured according to the supplier's protocol. Briefly, cortices were incubated at 37° C. for 10 minutes in activated papain solution before trituration in hibernation medium containing B27 supplement using a modified siliconized glass Pasteur pipette. The cell suspension was centrifuged at 1100×g for 1 minute at room temperature (RT). The cell pellet was then resuspended in NbAstro medium (BrainBits LLC.) and the live cell density was assessed using a cell counter. Primary cells were plated at a density of 7500 cells/cm2 in T75 tissue culture flasks coated with poly-D-lysine (PDL) in a total volume of 12 mL of NbAstro media, and incubated for 10-14 days at 37° C. 5% CO2. After 10-14 days, primary astrocytes in passage 0 (P0) that had reached confluency in the T75 flasks were detached using TrypLE detachment reagent, pelleted at 300×g, and plated into poly-d-lysine coated T225 flasks in 20 mL of NbAstro media, and incubated for another 7 days at 37° C. 5% CO2. After 7 days, primary P1 astrocytes in confluent T225 flasks were detached using TrypLE detachment reagent, pelleted at 300×g, and plated intopoly-d-lysine coated 96-well plates at 10,000 cells per well in 200 μL of NbAstro media, and incubated for 7 days at 37° C. 5% CO2. After 7 days, P2 primary astrocytes were utilized for pAKT and pERK assays.
The pAKT (phosphorylated AKT) assay was performed according to the manufacturer's protocol. Briefly, MSD pAKT plates were blocked for 1-2 hours by adding 150 μL of blocker A prepared in 1× Tris wash buffer. […] Following antibody incubation, plates were washed three times with 150 μL of 1× Tris wash buffer and 1× read buffer (150 μL/well) was added. Finally, plates were read in the MSD imager platform to assess pAKT levels.
AKT and ERK phosphorylation data were analyzed by non-linear regression (GraphPad Prism, version 6) to determine the EC50 values.

Experiment [2] concerns AKT phosphorylation in primary mouse astrocytes. Briefly: AKT phosphorylation in primary mouse cortical astrocytes (AlphaLISA SureFire Ultra). The note with it: Astrocyte, 10 min, 10-minute exposure, mean of n=3. The protocol:
(§1) For the experiments using mouse and human primary astrocytes, ten-point concentration-response curves (90 nM-4.57 pM or 30 nM-1.52 pM) were generated for AKT and/or ERK phosphorylation in primary human and mouse cortical astrocytic cultures in response to a 10-minute treatment with ozanimod, Compound 3, Compound 1, or FTY720-P. AKT and ERK phosphorylation were quantified using AlphaLISA SureFire Ultra Assay kits and the EnVision Plate Reader. AKT and ERK phosphorylation within treated astrocytes were expressed as the mean change in signal intensity compared to the dimethyl sulfoxide (DMSO) vehicle and the half maximal effective concentration (EC50) was determined using non-linear regression.
(§2) Timed pregnant (E16) C57BL/6J female mice arrive to the test facility on a weekly basis and were housed and cared for according to appropriate protocols for this model. Primary mouse cortical astrocytes are harvested from P0-P2 pups. The newly born animals were deeply anesthetized on ice, decapitated, and the brains were rapidly removed and stored in ice-cold NbAstro media (BrainBits, LLC). Cells were dissociated from freshly dissected cortices by mechanical disruption in the presence of trypsin and DNase. Cells were put into a PDL coated T75 tissue culture flask containing 16 mL NbAstro Media and incubated at 37° C. 5% CO2. Once the mouse astrocytes had reached confluency in the T75 flask, they were detached using TripLE detachment reagent, pelleted at 300×g, expanded into two T225 PDL coated tissue culture flasks containing 40 mL of NbAstro and incubated at 37° C. 5% CO2. Once the astrocytes reached confluency in the T225 flasks they were detached using TrypLE detachment reagent, pelleted at 300×g, plated into PDL coated 96-well plates at a density of 10,000 cells per well in 200 μL NbAstro and incubated at 37° C. 5% CO2. Half of the media was replenished every 3-4 days. After 5-7 days of incubation, the P2 mouse astrocyte plates were utilized for the pERK and pAKT assays.
Cell lysis and detection of pAKT were performed according to the PerkinElmer AlphaLISA SureFire Ultra pAKT1/2/3 ([…]) assay protocol. Astrocytes were lysed in the 96-well plate following a 10 minute incubation with compounds with shaking at room temperature (RT). The astrocytic lysates (10 μL/well) were transferred into a 384-well OptiPlate. As specified by the assay protocol, an acceptor bead mix and a donor bead mix (5 μL/well for each) were added to the plate under subdued light. […] The plates were read on the EnVision Plate Reader to assess the pAKT levels.
(§3) The AKT and ERK phosphorylation data, collected by a Perkin Elmer EnVision Microplate Reader, was analyzed by non-linear regression (GraphPad Prism, version 7.03) to determine the EC50 values.

The subject of experiment [3] is ERK phosphorylation in primary mouse astrocytes. The experiment is described as follows: ERK phosphorylation in primary mouse cortical astrocytes (AlphaLISA SureFire Ultra). The note with it: Astrocyte, 10 min, 10-minute exposure. On the procedure:
as §1
as §2, with “Once the astrocytes reached confluency in the T225 flasks they were detached using TrypLE detachment reagent, pelleted at 300×g, plated into PDL coated 96-well plates at a density of 10,000 cells per well in 200 μL NbAstro and incubated at 37° C. 5% CO2. Half of the media was replenished every 3-4 days. After 5-7 days of incubation, the P2 mouse astrocyte plates were utilized for the pERK and pAKT assays.” left out
Cell lysis and detection of pERK were performed according to the PerkinElmer AlphaLISA SureFire Ultra p-ERK1/2 (Thr202/TYR 204) assay protocol. […] The plates were read on the EnVision Plate Reader to assess the pERK levels.
as §3
(In Alpha technology, singlet oxygen from a donor bead excites a nearby acceptor bead.)

In general, EC50 refers to the midpoint of the concentration-response curve. Lower therefore signals a more potent agent. `CC(C)Oc1ccc(-c2nc(-c3cccc4c3CC[C@@H]4NCCO)no2)cc1C#N` [Ozanimod]: the values for the EC50 in experiment [1], in experiment [2] and in experiment [3] were 2.03 nM, 0.9 nM and 2.42 nM, respectively.

With `CC(C)Oc1ccc(-c2nc(-c3cccc4c3CCC4=O)no2)cc1C#N` [Compound 1, 2-isopropoxy-5-(3-(1-oxo-2,3-dihydro-1H-inden-4-yl)-1,2,4-oxadiazol-5-yl)benzonitrile], the EC50 was found to be 0.66 nM in experiment [1], 0.49 nM in experiment [2] and 0.87 nM in experiment [3].
